Reference: patent US20250099420A1, “SMALL MOLECULE MODULATORS OF GPR139 COMPLEX” (University of Florida Research Foundation, Incorporated, priority 2022, published 2025)
Read-outs that look alike come from different tables or passages of the source.

How the values were obtained:
parental HEK cells = assay: HEK parental Agonist Counterscreen Assay (non-transfected cells); assay type: cell-based; conditions: for Averaged Max % Response (±St. Dev.): activity relative to known control
Excerpt: The high control for the agonist counterscreen was Forskolin not acetylcholine.

GPR139 = molecular target: T1, GPR139 (Homo sapiens, UniProt Q6DWJ6); assay: GPR139 Agonist titration / agonist counterscreen assay (calcium detection, HEK-GPR139 cells); assay type: cell-based; design: expressed in transfected cells; host or cells: HEK Aequorin cells, Maxcyte transient transfection; conditions: GPR139 Agonist Activity; for Averaged Max % Response (±St. Dev.): activity relative to known control; for EC50: read-out: EC50
T1 sequence (Q6DWJ6 1-353): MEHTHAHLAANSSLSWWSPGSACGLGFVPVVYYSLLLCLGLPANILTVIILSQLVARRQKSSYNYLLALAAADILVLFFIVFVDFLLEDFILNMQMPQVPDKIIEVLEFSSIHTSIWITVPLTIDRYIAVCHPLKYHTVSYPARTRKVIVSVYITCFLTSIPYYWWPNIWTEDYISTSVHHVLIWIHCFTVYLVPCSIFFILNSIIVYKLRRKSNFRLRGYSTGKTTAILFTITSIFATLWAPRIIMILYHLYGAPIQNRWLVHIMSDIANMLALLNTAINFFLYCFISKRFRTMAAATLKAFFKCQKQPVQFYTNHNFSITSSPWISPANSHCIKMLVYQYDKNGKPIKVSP
Method: GPR activity was assessed using a calcium detection assay. […] Negative control samples were treated with DMSO. […] Intracellular calcium was measured using Calcium 5.

[1] = HEK Agonist Activity, parental non-transfected HEK cells
[2] = values printed in E-notation without unit
[3] = Homo sapiens, HEK293, HEK Agonist Activity section of Table 4 (parental HEK counterscreen)
[4] = HEK Agonist Activity section of Table 4 (parental HEK counterscreen)
[5] = Homo sapiens, HEK293, HEK Agonist Activity, parental non-transfected HEK cells

| SMILES | Lipophilic Efficiency (logD) (parental HEK cells; HEK Agonist Activity) | Lipophilic Efficiency (logP) (parental HEK cells; HEK Agonist Activity) | Averaged Max % Response (±St. Dev.) (GPR139) [%] | Lipophilic Efficiency (logD) (GPR139; based on logD) | Lipophilic Efficiency (logP) (GPR139; based on logP) | Hill Slope (GPR139; fitted dose-response curve) | Efficiency Ligand (GPR139; ligand efficiency) | EC50 (GPR139; [2]) [nM] | Lipophilic Efficiency (logD) (parental HEK cells; HEK Agonist Activity section) | Lipophilic Efficiency (logP) (parental HEK cells; HEK Agonist Activity section) | Efficiency Ligand (GPR139) | Hill Slope (GPR139) | Lipophilic Efficiency (logD) (GPR139) | Lipophilic Efficiency (logP) (GPR139) | EC50 (GPR139; HEK-GPR139 cells) [nM] | Averaged Max % Response (±St. Dev.) (parental HEK cells; HEK Agonist Activity) [%] | Averaged Max % Response (±St. Dev.) (parental HEK cells; HEK Agonist Activity section) [%] | EC50 (parental HEK cells; [3]) [nM] | also measured |
| --- | --- | --- | --- | --- | --- | --- | --- | --- | --- | --- | --- | --- | --- | --- | --- | --- | --- | --- | --- |
| CCCCNC(=O)NNC(=O)CSc1cc(C)c(Br)cc1C [SR-01000061818] | 1.46 | 1.46 | 110.53 ± 3.36 | 4.41 | 4.41 | 0.71 | 0.50 | 16.3 |  |  |  |  |  |  |  | 3.00 ± 9.38 |  |  | EC50 (parental HEK cells; [1]): > 14500 nM |
| Cc1ccc(CN2CCCN(CC(=O)NC3CCCCCCC3)C2=O)c(Cl)c1 [SR-01000146444] |  |  | 112.24 ± 16.06 | 3.54 | 3.54 | 0.93 | 0.35 |  | 1.38 | 1.38 |  |  |  |  |  |  | 20.98 ± 2.11 | > 14100 |  |
| O=C(Nc1ccc(-c2cn[nH]c2)cc1OCCN1CCCC1)C1COc2ccc(F)cc2C1.O=C(O)C(F)(F)F.O=C(O)C(F)(F)F (stereo not shown) [SR-00000005389] |  |  | 116.35 ± 10.47 | 4.67 | 3.26 | 0.77 | 0.29 | 186 | 2.79 | 1.38 |  |  |  |  |  |  | 31.02 ± 4.14 |  | EC50 (parental HEK cells; [4]): > 14100 nM |
| CCOC(=O)C1C2C=CC3(CN(C(C)c4ccc(Br)cc4)C(=O)C13)O2 (stereo not shown) [SR-01000114492] |  |  | 84.13 ± 7.28 |  |  |  |  |  | 2.28 | 2.28 | 0.34 | 0.90 | 3.50 | 3.50 | 853 |  | −1.32 ± 3.21 |  | EC50 (parental HEK cells; [4]): > 14100 nM |
| Nc1c(Cl)c(Cl)nc(C(=O)OCC(=O)NCc2ccccc2)c1Cl [SR-01000073564] |  |  | 129.62 ± 8.33 | 4.46 | 4.46 | 0.59 | 0.42 | 58.6 | 2.07 | 2.07 |  |  |  |  |  |  | 8.96 ± 14.03 | > 14500 |  |
| COc1cccc(CNC(=O)Nc2ccc(-c3ccncc3)cc2)c1.O=C(O)C(F)(F)F [SR-00000007266] |  |  | 100.59 ± 15.12 |  |  |  |  |  | 1.76 | 1.75 | 0.36 | 1.16 | 3.29 | 3.29 | 408 |  | 23.72 ± 3.44 |  | EC50 (parental HEK cells; [4]): > 14100 nM |
| Cc1ccc(C)c(C(=O)CCC(=O)NNC(=O)CSc2nc3ccccc3o2)c1 [SR-01000073202] | 1.04 | 1.04 | 119.67 ± 15.04 | 4.38 | 4.38 |  | 0.39 | > 6.6 |  |  |  |  |  |  |  | 12.21 ± 5.38 |  |  | EC50 (parental HEK cells; [5]): > 14500 nM |
| CCCCC(=O)OCC(=O)NCc1ccc(C)cc1 [SR-01000042109] |  |  | 92.84 ± 12.11 |  |  |  |  |  | 2.18 | 2.18 | 0.47 | 1.40 | 3.80 | 3.80 | 363 |  | 21.12 ± 3.06 | > 15000 |  |
| CC1(c2ccc(Cl)cc2)NC(=O)N(CC(=O)NCc2cccs2)C1=O (stereo not shown) [SR-01000058107] | 2.55 | 2.55 | 95.61 ± 13.32 | 5.35 | 5.35 | 0.85 | 0.43 | 23.3 |  |  |  |  |  |  |  | 4.84 ± 7.51 |  |  | EC50 (parental HEK cells; [5]): > 14900 nM |
| O=C(CCc1nc2cccnc2n1Cc1cccs1)NCc1ccc2c(c1)OCO2 [SR-01000151666] |  |  | 107.14 ± 25.50 | 4.24 | 4.24 | 0.74 | 0.34 | 60.3 | 1.87 | 1.87 |  |  |  |  |  |  | −3.95 ± 11.76 | > 14100 |  |
| CCCCCc1cc(C2=CCC=C2)ccc1CC(=O)C1CCc2ccccc2C1 (stereo not shown) [SR-00000004451] |  |  | 92.93 ± 0.53 | 6.38 | 4.33 | 0.70 | 0.33 |  | 4.36 | 2.31 |  |  |  |  |  |  | 3.04 ± 3.40 | > 14100 |  |

More lines, main results first:

| Lipophilic Efficiency (logD) (parental HEK cells; HEK Agonist Activity) | Lipophilic Efficiency (logP) (parental HEK cells; HEK Agonist Activity) | Averaged Max % Response (±St. Dev.) (GPR139) [%] | Lipophilic Efficiency (logD) (GPR139; based on logD) | Lipophilic Efficiency (logP) (GPR139; based on logP) | Hill Slope (GPR139; fitted dose-response curve) | Efficiency Ligand (GPR139; ligand efficiency) | EC50 (GPR139; [2]) [nM] | Lipophilic Efficiency (logD) (parental HEK cells; HEK Agonist Activity section) | Lipophilic Efficiency (logP) (parental HEK cells; HEK Agonist Activity section) | Efficiency Ligand (GPR139) | Hill Slope (GPR139) | Lipophilic Efficiency (logD) (GPR139) | Lipophilic Efficiency (logP) (GPR139) | EC50 (GPR139; HEK-GPR139 cells) [nM] | SMILES | Averaged Max % Response (±St. Dev.) (parental HEK cells; HEK Agonist Activity) [%] | Averaged Max % Response (±St. Dev.) (parental HEK cells; HEK Agonist Activity section) [%] | EC50 (parental HEK cells; [3]) [nM] | also measured |
| --- | --- | --- | --- | --- | --- | --- | --- | --- | --- | --- | --- | --- | --- | --- | --- | --- | --- | --- | --- |
|  |  | 86.17 ± 9.84 |  |  |  |  |  | 2.33 | 2.33 | 0.38 | 1.29 | 3.37 | 3.37 | 1300 | COc1ccc(CCn2nc(-c3cccnc3)[nH]c2=O)cc1 [SR-01000335115] |  | 12.86 ± 9.78 | > 14100 |  |
|  |  | 83.52 ± 6.71 |  |  |  |  |  | 1.83 | 1.83 | 0.41 | 1.17 | 3.39 | 3.39 | 387 | O=C(CCc1ccccc1)Nc1nnc(Cc2cccs2)o1 [SR-01000920660] |  | −18.29 ± 7.41 | > 14100 |  |
|  |  | 111.41 ± 5.44 |  |  |  |  |  | 2.09 | 2.08 | 0.38 | 0.60 | 3.68 | 3.67 | 366 | O=C(CSc1ccc(Cl)cc1)NNC(=O)c1ccc([N+](=O)[O-])cc1 [SR-01000286858] |  | 4.98 ± 9.07 | > 14100 |  |
|  |  | 105.03 ± 11.34 |  |  |  |  |  | 0.46 | 0.46 | 0.33 | 0.55 | 1.49 | 1.49 | 1300 | CCOC(=O)c1cccc(NC(=O)Cc2cccc3ccccc23)c1 [SR-01000267161] |  | 13.91 ± 0.63 |  | EC50 (parental HEK cells; [4]): > 14100 nM |
| 3.12 | 2.87 | 91.26 ± 4.77 | 5.92 | 5.67 | 0.48 | 0.37 | 22.6 |  |  |  |  |  |  |  | CC(C)(C)CN1CCNC(=O)C1CC(=O)NCCc1cnn(-c2ccccc2)c1 (stereo not shown) [SR-01000177515] | 24.98 ± 4.71 |  |  | EC50 (parental HEK cells; [1]): > 14100 nM |
|  |  | 134.89 ± 17.50 | 3.22 | 3.22 | 0.52 | 0.30 | 161 | 1.27 | 1.27 |  |  |  |  |  | C=CCC(O)(CC=C)C(C)NC(=O)CCC1(Cc2ccc3ccccc3c2)CCC(=O)N1 (stereo not shown) [SR-01000190122] |  | 0.66 ± 6.28 |  | EC50 (parental HEK cells; [4]): > 14100 nM |
| 1.64 | 1.64 | 114.27 ± 15.21 | 4.70 | 4.70 | 1.01 | 0.44 | 12.3 |  |  |  |  |  |  |  | Cc1cc(Cl)ccc1OCC(=O)NNC(=O)C1CC1c1ccccc1 (stereo not shown) [SR-01000317486] | 3.86 ± 3.87 |  |  | EC50 (parental HEK cells; [5]): > 14100 nM |
| 1.98 | 1.98 | 111.46 ± 12.99 | 5.36 | 5.36 | 0.33 | 0.48 | 5.9 |  |  |  |  |  |  |  | COc1cccc(C(=O)NNC(=O)COc2ccc(C)cc2Br)c1 [SR-01000369718] | 7.35 ± 13.00 |  |  | EC50 (parental HEK cells; [5]): > 14100 nM |
